Results reported in patent US9993426B2, “Bisacodyl compositions and delivery apparatus” (C.B. FLEET COMPANY INCORPORATED, priority 2015, dated 2018).

Assays:
[1] = Water solubility (qualitative statement); format: physicochemical
Text: Ready-to-use bisacodyl preparations have a short shelf-life (i.e., less than 18 months), can experience settling, and result in waste (e.g., a significant portion of the drug remains in the package). There is a need in the art for a ready-to-use bisacodyl preparation with a longer shelf life and less wasteful apparatus for delivery into the colon.

[2] = Text: The molecular formula for bisacodyl is (C22H19NO4), and the molecular weight is 361.39 gram/mole.
[3] = cited from earlier work

With `Oc1ccc(C(c2ccc(O)cc2)c2ccccn2)cc1` [desacetyl bisacodyl] the water solubility [1] was “poor water solubility”.
In the case of `CC(=O)Oc1ccc(C(c2ccc(OC(C)=O)cc2)c2ccccn2)cc1` [Bisacodyl, 4,4′-(pyridin-2-ylmethylene)bis(4,1-phenylene) diacetate], the water solubility [1] is listed as “poor water solubility”, the aqueous molar solubility [2] is listed as 3.4 µM and the “time to have an effect” value ([3]; administered orally, 5-10 milligrams) is listed as 6 to 12 h. For the same molecule, the “time in which usually effective” value ([3]; administered rectally in suppository form, 10 mg) was 15 to 60 min.
